Measurements taken from PubChem BioAssay (NCI).
Where “and” joins values, the source holds several entries; their conditions need not be identical. Equal values may be shown once.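 Grown in 96-well plates, cells were treated for 48 hours with each compound at five concentrations. Insufficient inhibition: endpoint recorded as highest concentration tested. At the GI50, growth is halved. TGI marks complete inhibition of growth.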

Tests used:
Test in all cases: DTP human tumour cell line panel, 48 h
[1] = test system: NCI/ADR-RES ovarian
[2] = test system: SK-MEL-2 melanoma
[3] = test system: NCI-H460 lung
[4] = test system: SNB-75 CNS
[5] = test system: HCC-2998 colon
[6] = test system: NCI-H522 lung
[7] = test system: HL-60(TB) leukemia
[8] = test system: PC-3 prostate

Structure (SMILES) | GI50 [1] | TGI [1] | GI50 [2] | TGI [2] | GI50 [3] | TGI [3] | GI50 [4] | TGI [4] | GI50 [5] | TGI [5] | GI50 [6] | TGI [6] | GI50 [7] | TGI [7] | GI50 [8] | TGI [8]
Cn1c(/C=C(\C#N)c2ccccc2)nc2c(N3CCOCC3)nc(Cl)nc21 | 1.98 µM | 7.23 µM | 1.62 µM | 3.18 µM | 1.77 µM | 3.72 µM | 0.276 µM | 1.59 µM | 1.82 µM | 3.33 µM | 0.74 µM | 2.47 µM | 0.462 µM | 2.61 µM | 0.849 µM | 2.99 µM
CCC/C(=N/N=C(N)N)c1ccc(NC(=O)c2cc3cc(OC)ccc3[nH]2)cc1 | 79.7 µM | > 100 µM | 18.3 µM | 38.9 µM |  |  | 2.94 µM | 18 µM | 15.1 µM | 39 µM | 12.7 µM | 33.9 µM |  |  |  | 
C=C(CN1C(=O)[C@H]2CCCN2C(=O)c2ccccc21)c1ccc(C(=O)O)cc1 | > 100 µM | > 100 µM | > 100 µM | > 100 µM | > 100 µM | > 100 µM | > 100 µM | > 100 µM | > 100 µM | > 100 µM | > 100 µM | > 100 µM | > 100 µM | > 100 µM | > 100 µM | > 100 µM
CCc1c(C#N)c(S[C@@H](C(N)=O)c2ccccc2)nc(N(C)C)c1C#N |  |  | > 100 µM | > 100 µM | > 100 µM | > 100 µM | 2.11 µM | 7.18 µM | > 100 µM | > 100 µM |  |  |  |  |  | 
O=C1CCCCCCCC/C=C\CC(c2ccco2)O1 (centres undefined) | 34.4 µM | > 100 µM | 21.6 µM | 58.4 µM | 76.5 µM | > 100 µM | 21.2 µM | 61.8 µM | > 100 µM | > 100 µM | 18.1 µM | 47.2 µM | 12 µM | 31 µM | 36.3 µM | > 100 µM
O=C1C(=O)c2ccccc2C(O)=C1CC=C(Br)Br | 5.33 µM | 87.3 µM | 12.2 µM | 30.9 µM | 0.524 µM | 13.3 µM | 2.58 µM | 59.5 µM | 18.6 µM | > 100 µM | 5.28 µM | 29.9 µM | 5.37 µM | 30.4 µM | 3.05 µM | 91.5 µM
N#Cc1nc2c(S(=O)(=O)c3ccccc3)c(N)n(Cc3cccnc3)c2nc1C#N | 92.5 µM | > 100 µM | > 100 µM | > 100 µM | > 100 µM | > 100 µM | 3.35 µM | 20.2 µM | > 100 µM | > 100 µM |  |  | 3.71 µM | > 100 µM | > 100 µM | > 100 µM
CCn1c(CN2CCN(Cc3ccccc3)CC2)nc2cc(NC(=O)c3cccs3)ccc21 | 28.9 µM | > 100 µM | 20 µM | 39.3 µM | 18.7 µM | 42.5 µM | 12.4 µM | 30.6 µM | 17.3 µM | 35.6 µM |  |  | 20.5 µM | 60.9 µM | 20.8 µM | > 100 µM
O=C(CN1CCN(CCCOc2c(-c3ccccc3)oc3ccccc3c2=O)CC1)Nc1ccc(Cl)cc1C(=O)c1ccccc1Cl | 5.74 µM | 26.4 µM | 12.5 µM | 31 µM | 3.64 µM | > 100 µM | 4.39 µM | 47.1 µM | 2.26 µM | 4.23 µM | 16.6 µM | 57.2 µM | > 100 µM | > 100 µM | 3.18 µM | 21.4 µM
COc1ncc(-c2ccc3nccc(-c4ccnnc4)c3c2)cc1NS(=O)(=O)c1ccc(F)cc1F | 0.0228 µM and 0.0246 µM | > 8.81 µM and 4.37 µM | 0.0194 µM and < 0.01 µM | 0.227 µM and 0.15 µM | 0.00406 µM and < 0.01 µM | > 10 µM and 15.3 µM | 0.00133 µM and < 0.01 µM | 0.0135 µM and < 0.0156 µM | 0.00997 µM and 0.0133 µM | 0.275 µM and 0.572 µM | 0.0147 µM and < 0.0104 µM | 2.16 µM and 2.58 µM | 0.0224 µM and < 0.01 µM | > 4.01 µM and 1.21 µM | 0.00432 µM and < 0.01 µM | 2.37 µM and 4.46 µM
CC(=O)[C@@]1(O)CC[C@H]2[C@@H]3C[C@H](C)C4=CC(=O)CC[C@]4(C)[C@H]3[C@@H](O)C[C@@]21C |  | > 100 µM |  | > 100 µM |  | > 100 µM |  | > 100 µM |  | > 100 µM |  | > 100 µM |  | > 100 µM |  | > 100 µM
CC(C)(C)c1nn(-c2ccccc2)c2c1C(=O)CSC(c1ccccc1Cl)N2 (centres undefined) | 0.632 µM | 7.54 µM | 2.1 µM | 13.4 µM | 2.8 µM | 12.4 µM | 2.2 µM | 13.9 µM | 2.08 µM | 7.51 µM | 0.65 µM | 7.34 µM | 2.28 µM | 10.2 µM | 1.62 µM | 16.5 µM
CCC(CO)Nc1nc(NCc2ccccc2O)c2ncn(C(C)C)c2n1 (centres undefined) | 6.63 µM | 53.9 µM | 1.79 µM | 5.83 µM | 2.45 µM | 11.8 µM | 1.96 µM | 6.82 µM | 0.215 µM | 6.98 µM | 1.8 µM | 8.52 µM | 2.08 µM | 4.58 µM | 5.67 µM | 30.8 µM
COc1ccc(-n2nnnc2-c2c[nH]c3c(F)cc(F)cc23)cc1 | 40.6 µM | > 100 µM | > 100 µM | > 100 µM | > 100 µM | > 100 µM | 24.3 µM | 76.9 µM | > 100 µM | > 100 µM | 86 µM | > 100 µM | > 100 µM | > 100 µM | > 100 µM | > 100 µM
COC(=O)c1c2c(c(C)[n+]([O-])c1C)C(=O)C=C(NCc1ccc(F)c(Cl)c1)C2=O | 0.265 µM | 1.63 µM | 0.677 µM | 2.5 µM | 0.264 µM | 1.4 µM | 1.69 µM | 3.09 µM | 0.187 µM | 1.41 µM | 0.266 µM | 1.7 µM | 0.27 µM | 0.895 µM | 0.245 µM | 4.02 µM
